Common to all, as to assay: relative viability (nuclei count vs DMSO), 5 days (fraction); higher = more cells survive
Compound in the experiment “Axitinib + Pictilisib”: CNC(=O)c1ccccc1Sc1ccc2c(/C=C/c3ccccn3)n[nH]c2c1 [Axitinib] + CS(=O)(=O)N1CCN(Cc2cc3nc(-c4cccc5[nH]ncc45)nc(N4CCOCC4)c3s2)CC1 [Pictilisib] (partner 1 µM)
Put shortly: (§1)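 One day after seeding in 1536-well plates, lung cancer cell lines were dosed by pin tool. Dosing was either single-drug or a fixed anchor-drug dose plus five library-drug doses (not always all listed) in √10 steps. After 5 days, nuclei were stained in one fix-and-stain step and counted on 4× images, and relative viability is the nuclei count of treated wells over that of vehicle wells, given as the median of duplicate plates.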

Compound in the experiment “Axitinib + Dasatinib”: CNC(=O)c1ccccc1Sc1ccc2c(/C=C/c3ccccn3)n[nH]c2c1 [Axitinib] + Cc1nc(Nc2ncc(C(=O)Nc3c(C)cccc3Cl)s2)cc(N2CCN(CCO)CC2)n1 [Dasatinib] (partner 0.075 µM)
Put shortly:
as §1

Compound in experiment [1]: CC1=CC=C(C=C1)C(=O)CN2C3=C(CCCC3)SC2=N [Pifithrin_alpha] + CCNC(=O)c1noc(-c2cc(C(C)C)c(O)cc2O)c1-c1ccc(CN2CCOCC2)cc1 [Luminespib] (partner 0.01 µM)
Put shortly: as §1

Compound in experiment [2]: CC1=CC=C(C=C1)C(=O)CN2C3=C(CCCC3)SC2=N [Pifithrin_alpha] + C[C@]1(O)C[C@@H](c2nc(-c3ccc4ccc(-c5ccccc5)nc4c3)c3c(N)nccn32)C1 [Linsitinib] (partner 1 µM)
Summed up: as §1

The record followed here is the supplement of paper PMC10307832.

Take NCI-H650: the relative viability in the experiment with Axitinib + Pictilisib (first compound 0.005 µM) was 0.9; with Axitinib + Pictilisib (first compound 0.01581 µM), 1.03; with Axitinib + Pictilisib (first compound 0.05 µM) it was 0.764; with Axitinib + Pictilisib (first compound 0.1581 µM), 0.945; with Axitinib + Pictilisib (first compound 0.5 µM) it was 0.846; in the experiment with Axitinib + Dasatinib (first compound 0.005 µM), 0.496. Besides, the relative viability with Axitinib + Dasatinib (first compound 0.01581 µM) is 0.455; with Axitinib + Dasatinib (first compound 0.05 µM), 0.47; with Axitinib + Dasatinib (first compound 0.1581 µM), 0.436; in the experiment with Axitinib + Dasatinib (first compound 0.5 µM) it was 0.396; in experiment [1] (first compound 3.162 µM), 0.904; in experiment [1] (first compound 10 µM), 0.801. Also, the relative viability in experiment [1] (first compound 31.62 µM) came to 0.607; in experiment [1] (first compound 100 µM) it was 0.773; in experiment [2] (first compound 3.162 µM) it was 1; in experiment [2] (first compound 10 µM), 0.778; in experiment [2] (first compound 31.62 µM), 0.524; in experiment [2] (first compound 100 µM) it was 0.807.
